Experimental data as given in patent publication US20090054240A1, “Heteroaroyl-substituted Alanines” (BASF SE, priority 2006, published 2009).

What was measured:
lambsquarters = test: greenhouse post-emergence herbicidal test; format: in vivo, Chenopodium album; conditions: application rate 1.0 kg/ha a.s.
Source text: (§1) The seeds of the test plants were sown separately for each species. For the post-emergence treatment, the test plants were first grown to a height of 3 to 15 cm, depending on the plant habit, and only then treated with the active ingredients which had been suspended or emulsified in water. For this purpose, the test plants were either sown directly and grown in the same containers, or they were first grown separately as seedlings and transplanted into the test containers a few days prior to treatment. The rate of application for the post-emergence treatment was 1.0 kg/ha of a.s. (active substance). Depending on the species, the plants were kept at 10-25° C. or 20-35° C. The test period extended over 2 to 4 weeks. During this time, the plants were tended, and their response to the individual treatments was evaluated. Evaluation was carried out using a scale from 0 to 100. 100 means no emergence of the plants, or complete destruction of at least the aerial parts, and 0 means no damage, or normal course of growth. The plants used in the greenhouse experiments belonged to the following species: [table]

pig weed = test: greenhouse post-emergence herbicidal test; format: in vivo, Amaranthus retroflexus; conditions: application rate 1.0 kg/ha a.s.
Source text: as §1

green foxtail = test: greenhouse post-emergence herbicidal test; format: in vivo, Setaria viridis; conditions: application rate 1.0 kg/ha a.s.
Source text: as §1

melting point [°C]	SMILES	post-emergence action against lambsquarters (lambsquarters)	post-emergence action against pig weed (pig weed)	post-emergence action against green foxtail (green foxtail)
127	CNC(=O)[C@H](CN)NC(=O)c1cn(C)nc1C(F)(F)F [Compound 3.6, N-[(1S)-1-(Aminomethyl)-2-(methylamino)-2-oxoethyl]-1-methyl-3-(trifluoromethyl)-1H-pyrazole-4-carboxamide]			
205	CNC(=O)[C@H](CNC(=O)OC)NC(=O)c1cn(C)nc1C(F)(F)F [Compound 3.10, O-Methyl N-[(2S)-3-(methylamino)-2-({[1-methyl-3-(trifluoromethyl)-1H-pyrazol-4-yl]carbonyl}amino)-3-oxopropyl]carbamate]	very good	very good	very good
78	CNC(=O)[C@H](CNC(=O)OC(C)(C)C)NC(=O)c1cn(C)nc1C(F)(F)F [Compound 3.11, O-tert-Butyl N-[(2S)-3-(methylamino)-2-({[1-methyl-3-(trifluoromethyl)-1H-pyrazol-4-yl]carbonyl}amino)-3-oxopropyl]carbamate]			
